Laboratory results taken from patent publication US5338849A, “Azaindoles, preparation processes and medicinal products containing them” (Lipha, Lyonnaise Industrielle Pharmaceutique, priority 1992, dated 1994).
pIC50: −log10 of the molar value.

Legend:
blood cholesterol level = experiment: Test B: measurement of the hypocholesterolaemic effect in rodents; assay type: in vivo, male Wistar rats; conditions: Rattus norvegicus; oral, cholesterol-fed rats (2.5% cholesterol, 8 days), 24 hours and 4 hours before sacrifice; read-out: 25% effective dose (ED25), quantity of compound which lowers the blood cholesterol level by 25%
Experimental: Test B: measurement of the hypocholesterolaemic effect in rodents; male Wistar rats weighing 200-220 g are subjected to a diet enriched with 2.5% of cholesterol for 8 days; on the last two days, they are treated orally with the test product, 24 hours and 4 hours before being sacrificed by exsanguination: the blood cholesterol level is evaluated on an aliquot fraction of serum by an automated enzymatic method. The results are expressed in the form of a 25% effective dose (ED25) in mg per kg of animal body weight, which represents the quantity of compound which lowers the blood cholesterol level by 25%.

aortic ACAT = target: T1, aortic ACAT (Oryctolagus cuniculus, UniProt A0A5F9CPP4); experiment: Test A: measurement of the inhibition of aortic ACAT in vitro in rabbits; assay type: biochemical, male New Zealand rabbits; conditions: rabbit aortic microsomes, [^14 C]oleoylcoenzyme A, read-out: 50% inhibitory concentration (IC50), concentration of compound which inhibits the ACAT activity by 50%
T1 construct: the aorta is removed, dissected and homogenised in order to prepare the microsomal fraction by ultracentrifugation; from tissue; host or cells: aorta microsomes of cholesterol-fed male New Zealand rabbits
T1 sequence (A0A5F9CPP4 1-555): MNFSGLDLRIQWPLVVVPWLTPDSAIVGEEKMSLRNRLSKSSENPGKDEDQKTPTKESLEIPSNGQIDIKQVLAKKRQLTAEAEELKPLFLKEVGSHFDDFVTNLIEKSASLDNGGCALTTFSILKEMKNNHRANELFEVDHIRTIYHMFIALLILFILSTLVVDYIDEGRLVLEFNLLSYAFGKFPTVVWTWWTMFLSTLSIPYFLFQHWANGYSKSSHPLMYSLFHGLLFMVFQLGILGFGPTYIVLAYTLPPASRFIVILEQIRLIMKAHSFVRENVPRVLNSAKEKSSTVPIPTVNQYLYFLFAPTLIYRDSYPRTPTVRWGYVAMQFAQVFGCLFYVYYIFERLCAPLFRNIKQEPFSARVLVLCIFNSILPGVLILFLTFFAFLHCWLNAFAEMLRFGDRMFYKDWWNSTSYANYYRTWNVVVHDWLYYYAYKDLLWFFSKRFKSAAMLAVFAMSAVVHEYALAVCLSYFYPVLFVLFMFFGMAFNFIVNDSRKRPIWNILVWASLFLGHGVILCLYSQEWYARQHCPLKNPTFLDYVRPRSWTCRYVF
Experimental: Test A: measurement of the inhibition of aortic ACAT in vitro in rabbits; male New Zealand rabbits weighing between 2.2 and 2.5 kg, subjected beforehand for 15 days to a diet enriched with 1.25% of cholesterol, are sacrificed by cervical dislocation; the aorta is removed, dissected and homogenised in order to prepare the microsomal fraction by ultracentrifugation; these microsomes are incubated in the presence of [^14 C]oleoylcoenzyme A according to the method described by P. J. GILLIES et al., Exp. and Mol. Pathol., 1986, 44, 329-339; the lipids are extracted from the incubate with a methanol/chloroform mixture and the [^14 C]oleoylcholesterol is separated by TLC: the latter compound represents the measure of the ACAT activity, and the results are expressed in the form of a 50% inhibitory concentration (IC50), representing the concentration of compound which inhibits the ACAT activity by 50%.

[1] = tested on: intestinal absorption of cholesterol; experiment: Test C: measurement of the inhibition of intestinal absorption of cholesterol in rats; assay type: in vivo, Wistar male rats; conditions: Rattus norvegicus; oral, fasted rats, Triton WR-1339 i.v., [^3 H]cholesterol orally; read-out: 50% effective dose (ED50), quantity of compound which inhibits intestinal absorption of cholesterol by 50%
Experimental: Test C: measurement of the inhibition of intestinal absorption of cholesterol in rats; Wistar male rats weighing 230-250 g, fasted for 24 hours, are treated simultaneously with the test product administered orally and with Triton WR-1339 administered i.v.; one hour later, they are treated again orally with [^3 H]cholesterol; three hours later, under ether anaesthesia, 1 ml of blood is withdrawn from their retro-orbital sinus: the blood radioactivity, evaluated on 0.1 ml of serum, represents the measure of the absorption of the [^3 H]cholesterol administered. The results are expressed in the form of a 50% effective dose (ED50) in mg per kg of animal body weight, which represents the quantity of compound which inhibits intestinal absorption of cholesterol by 50%.

pIC50 (aortic ACAT): 6.80
SMILES: CC(C)c1cccc(C(C)C)c1NC(=O)NCC1(n2ccc3cccnc32)CCCC1 [compound no. 1, N^1-[1-(7-azaindol-1-yl)cyclopentylmethyl]-N^2-(2,6-diisopropylphenyl)urea]
ED25 (blood cholesterol level): 0.202 mg/kg
ED50 [1]: 0.056 mg/kg
